Consider 14 molecules from patent US9873680B2 (Gilead Sciences, Inc., priority 2014, dated 2018).

A word on the inhibition: it is the drop in the measured response relative to a control, in per cent. A word on the CC50: it is the concentration giving 50% cytotoxicity.

The subject of series [1] is HIV-IIIb. As to the kind of experiment: Test A: Antiviral Assay in MT4 Cells. The class given is cell-based, HIV-1. The essentials:
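MT-4 cells were preinfected with HIV-IIIb […]. Cell viability, as protection from viral cytopathic effect, was read by CellTiter-Glo chemiluminescence.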

A short description of series [2]: Test B: Cytotoxicity Assay. The series is classed as cell-based. Conditions: human, uninfected MT-4 cells, CellTiter-Glo. How it is done: Test B: Cytotoxicity Assay Compound cytotoxicity and the corresponding CC50 values was determined using the same protocol as described in the antiviral assay (Test A) except that uninfected cells were used.
On the technique in general: ATP-based viability assays read luminescence as a measure of living cells.

Setting [3] is: Human immunodeficiency virus 1, MT4, 120 h, 0.2 μM drug concentration, MT-4 cells infected with HIV-IIIb, 5 days, values normalized to 100%, average over time, read-out: % inhibition at 0.2 μM (percent inhibition of virus-induced cell killing).

Read-outs that look alike come from different tables or passages of the source.

As to `Cn1cncc1C#Cc1ccc(-c2cccc3c(NS(C)(=O)=O)nn(C)c23)c([C@H](Cc2cc(F)cc(F)c2)NC(=O)Cn2nc(C(F)(F)F)c3c2C(F)(F)[C@@H]2C[C@H]32)n1` [Compound 33, 2-((3bS,4aR)-5,5-difluoro-3-(trifluoromethyl)-3b,4,4a,5-tetrahydro-1H-cyclopropa[3,4]cyclopenta[1,2-c]pyrazol-1-yl)-N—((S)-2-(3,5-difluorophenyl)-1-(6-((1-methyl-1H-imidazol-5-yl)ethynyl)-3-(1-methyl-3-(methylsulfonamido)-1H-indazol-7-yl)pyridin-2-yl)ethyl)acetamide], the inhibition at 0.2 µM in series [1] (setting [3]) came to 93%. In series [2], this molecule had a cytotoxic concentration (CC50) at 5 days of 12.5 µM.
The matching figures for `Cn1nc(NS(C)(=O)=O)c2c(Cl)ccc(-c3ccc(C#CC(C)(C)n4ccnc4)nc3[C@H](Cc3cc(F)cc(F)c3)NC(=O)Cn3nc(C(F)(F)F)c4c3C(F)(F)[C@@H]3C[C@H]43)c21` [Compound 79B, N—((S)-1-(6-(3-(1H-imidazol-1-yl)-3-methylbut-1-yn-1-yl)-3-(4-chloro-1-methyl-3-(methylsulfonamido)-1H-indazol-7-yl)pyridin-2-yl)-2-(3,5-difluorophenyl)ethyl)-2-((3bS,4aR)-5,5-difluoro-3-(trifluoromethyl)-3b,4,4a,5-tetrahydro-1H-cyclopropa[3,4]cyclopenta[1,2-c]pyrazol-1-yl)acetamide]: 93% and 11.5 µM.
The matching figures for `Cn1nc(NS(C)(=O)=O)c2c(Cl)ccc(-c3ccc(C#CC4(O)CCC4)nc3[C@H](Cc3cc(F)cc(F)c3)NC(=O)Cn3nc(C(F)F)c4c3C(F)(F)[C@@H]3C[C@H]43)c21` [Compound 69, N—((S)-1-(3-(4-chloro-1-methyl-3-(methylsulfonamido)-1H-indazol-7-yl)-6-((1-hydroxycyclobutyl)ethynyl)pyridin-2-yl)-2-(3,5-difluorophenyl)ethyl)-2-((3bS,4aR)-3-(difluoromethyl)-5,5-difluoro-3b,4,4a,5-tetrahydro-1H-cyclopropa[3,4]cyclopenta[1,2-c]pyrazol-1-yl)acetamide]: 96% and 13.6 µM.
Turning to `O=C(Cn1nc(C(F)F)c2c1C(F)(F)CCC2(F)F)N[C@@H](Cc1cc(F)cc(F)c1)c1nc(C#Cc2cncnc2)ncc1-c1ccc2c(c1)C(=O)NC2` [Compound 7H], the inhibition at 0.2 µM in series [1] (Human immunodeficiency virus 1, IIIB, MT4, 120 h, read-out: % inhibition at 0.2 μM (percent inhibition of virus-induced cell killing)) was found to be 94%. This molecule registered a CC50 at 5 days in series [2] of 0.534 µM.
For `Cn1cnc(C(O)C#Cc2ccc(-c3ccc(Cl)c4c(NS(C)(=O)=O)nn(C)c34)c([C@H](Cc3cc(F)cc(F)c3)NC(=O)Cn3nc(C(F)(F)F)c4c3C(F)(F)[C@@H]3C[C@H]43)n2)c1` (stereo partly drawn) [Compound 56B, N-((1S)-1-(3-(4-chloro-1-methyl-3-(methylsulfonamido)-1H-indazol-7-yl)-6-(3-hydroxy-3-(1-methyl-1H-imidazol-4-yl)prop-1-yn-1-yl)pyridin-2-yl)-2-(3,5-difluorophenyl)ethyl)-2-((3bS,4aR)-5,5-difluoro-3-(trifluoromethyl)-3b,4,4a,5-tetrahydro-1H-cyclopropa[3,4]cyclopenta[1,2-c]pyrazol-1-yl)acetamide], in series [1] (setting [3]), the inhibition at 0.2 µM stood at 84%. In addition, in series [2], the midpoint of cytotoxicity, the CC50 at 5 days, lay at 9.02 µM.
The like results for `Cn1nc(NS(C)(=O)=O)c2c(Cl)ccc(-c3ccc(C#CC4(CO)CC4)nc3[C@H](Cc3cc(F)cc(F)c3)NC(=O)Cn3nc(C(F)F)c4c3C(F)(F)[C@@H]3C[C@H]43)c21` [Compound 94B, N—((S)-1-(3-(4-chloro-1-methyl-3-(methylsulfonamido)-1H-indazol-7-yl)-6-((1-(hydroxymethyl)cyclopropyl)ethynyl)pyridin-2-yl)-2-(3,5-difluorophenyl)ethyl)-2-((3bS,4aR)-3-(difluoromethyl)-5,5-difluoro-3b,4,4a,5-tetrahydro-1H-cyclopropa[3,4]cyclopenta[1,2-c]pyrazol-1-yl)acetamide] were, in that order, 91% and 12.4 µM.
In the case of `Cn1nc(N)c2cccc(-c3ccc(C#CC4(O)CCOCC4)nc3[C@H](Cc3cc(F)cc(F)c3)NC(=O)Cn3nc(C(F)(F)F)c4c3C(F)(F)[C@@H]3C[C@H]43)c21` [Compound 27, N—((S)-1-(3-(3-amino-1-methyl-1H-indazol-7-yl)-6-((4-hydroxytetrahydro-2H-pyran-4-yl)ethynyl)pyridin-2-yl)-2-(3,5-difluorophenyl)ethyl)-2-((3bS,4aR)-5,5-difluoro-3-(trifluoromethyl)-3b,4,4a,5-tetrahydro-1H-cyclopropa[3,4]cyclopenta[1,2-c]pyrazol-1-yl)acetamide], the inhibition at 0.2 µM in series [1] (setting [3]) was 92%. This molecule returned a CC50 at 5 days in series [2] of 15.8 µM.
The matching figures for `Cn1nc(NS(C)(=O)=O)c2c(Cl)ccc(-c3ccc(C#CC(C)(C)n4ccnc4)nc3[C@H](Cc3cc(F)cc(F)c3)NC(=O)Cn3nc(C(F)F)c4c3C(F)(F)[C@@H]3C[C@H]43)c21` [Compound 80, N—((S)-1-(6-(3-(1H-imidazol-1-yl)-3-methylbut-1-yn-1-yl)-3-(4-chloro-1-methyl-3-(methylsulfonamido)-1H-indazol-7-yl)pyridin-2-yl)-2-(3,5-difluorophenyl)ethyl)-2-((3bS,4aR)-3-(difluoromethyl)-5,5-difluoro-3b,4,4a,5-tetrahydro-1H-cyclopropa[3,4]cyclopenta[1,2-c]pyrazol-1-yl)acetamide]: 89% and 20.9 µM.
On to `Cn1cnc(C#Cc2ccc(-c3ccc(Cl)c4c(NS(C)(=O)=O)nn(C)c34)c([C@H](Cc3cc(F)cc(F)c3)NC(=O)Cn3nc(C(F)(F)F)c4c3C(F)(F)[C@@H]3C[C@H]43)n2)c1` [Compound 67, N—((S)-1-(3-(4-chloro-1-methyl-3-(methylsulfonamido)-1H-indazol-7-yl)-6-((1-methyl-1H-imidazol-4-yl)ethynyl)pyridin-2-yl)-2-(3,5-difluorophenyl)ethyl)-2-((3bS,4aR)-5,5-difluoro-3-(trifluoromethyl)-3b,4,4a,5-tetrahydro-1H-cyclopropa[3,4]cyclopenta[1,2-c]pyrazol-1-yl)acetamide], for which, in series [1] (setting [3]), the inhibition at 0.2 µM was 87%. In series [2], this molecule had a CC50 at 5 days of over 53.2 µM.
Regarding `O=C(Cn1nc(C(F)F)c2c1C(F)(F)CCC2(F)F)N[C@@H](Cc1cc(F)cc(F)c1)c1ncc(C#CC2CC2)cc1-c1ccc2c(c1)C(=O)NC2` [Compound 2G, (S)—N-(1-(5-(cyclopropylethynyl)-3-(3-oxoisoindolin-5-yl)pyridin-2-yl)-2-(3,5-difluorophenyl)ethyl)-2-(3-(difluoromethyl)-4,4,7,7-tetrafluoro-4,5,6,7-tetrahydro-1H-indazol-1-yl)acetamide], the inhibition at 0.2 µM in series [1] (Human immunodeficiency virus 1, IIIB, MT4, 0.2 μM drug concentration, comparison with previously published compounds, read-out: Response at 0.2 μM (percent inhibition of virus-induced cell killing)) was 0%; in series [1] (setting [3]) it was 0%. Also, the inhibition at 2 µM in series [1] (Human immunodeficiency virus 1, IIIB, MT4, 2 μM drug concentration, comparison with previously published compounds, read-out: Response at 2 μM (percent inhibition of virus-induced cell killing)) came to 6%. Besides, the CC50 at 5 days in series [2] was 38.4 µM.
Regarding `Cn1nc(NS(C)(=O)=O)c2c(Cl)ccc(-c3ccc(C#CC4(O)CC5(COC5)C4)nc3[C@H](Cc3cc(F)cc(F)c3)NC(=O)Cn3nc(C(F)(F)F)c4c3C(F)(F)[C@@H]3C[C@H]43)c21` [Compound 51B, N—((S)-1-(3-(4-chloro-1-methyl-3-(methylsulfonamido)-1H-indazol-7-yl)-6-((6-hydroxy-2-oxaspiro[3.3]heptan-6-yl)ethynyl)pyridin-2-yl)-2-(3,5-difluorophenyl)ethyl)-2-((3bS,4aR)-5,5-difluoro-3-(trifluoromethyl)-3b,4,4a,5-tetrahydro-1H-cyclopropa[3,4]cyclopenta[1,2-c]pyrazol-1-yl)acetamide], the inhibition at 0.2 µM in series [1] (setting [3]) is 89%. Further, the CC50 at 5 days in series [2] turned out to be 19.8 µM.
On to `Cn1nc(NS(C)(=O)=O)c2cccc(-c3ccc(C#CC4(O)CCCC4)nc3[C@H](Cc3cc(F)cc(F)c3)NC(=O)Cn3nc(C(F)(F)F)c4c3C(F)(F)[C@@H]3C[C@H]43)c21` [Compound 37, 2-((3bS,4aR)-5,5-difluoro-3-(trifluoromethyl)-3b,4,4a,5-tetrahydro-1H-cyclopropa[3,4]cyclopenta[1,2-c]pyrazol-1-yl)-N—((S)-2-(3,5-difluorophenyl)-1-(6-((1-hydroxycyclopentyl)ethynyl)-3-(1-methyl-3-(methylsulfonamido)-1H-indazol-7-yl)pyridin-2-yl)ethyl)acetamide], for which the inhibition at 0.2 µM in series [1] (setting [3]) came to 80%. For the same molecule, the CC50 at 5 days in series [2] turned out to be 8.71 µM.
The like results for `Cn1nc(NS(C)(=O)=O)c2cccc(-c3ccc(C#CC4CCCCN4)nc3[C@H](Cc3cc(F)cc(F)c3)NC(=O)Cn3nc(C(F)(F)F)c4c3C(F)(F)[C@@H]3C[C@H]43)c21` (stereo partly drawn) [Compound 36B, 2-((3bS,4aR)-5,5-difluoro-3-(trifluoromethyl)-3b,4,4a,5-tetrahydro-1H-cyclopropa[3,4]cyclopenta[1,2-c]pyrazol-1-yl)-N-((1S)-2-(3,5-difluorophenyl)-1-(3-(1-methyl-3-(methylsulfonamido)-1H-indazol-7-yl)-6-(piperidin-2-ylethynyl)pyridin-2-yl)ethyl)acetamide] were, in that order, 83% and 6.57 µM.
The matching figures for `Cn1nc(NS(C)(=O)=O)c2c(Cl)ccc(-c3ccc(C#CC4(O)CO[C@H]5OCC[C@H]54)nc3[C@H](Cc3cc(F)cc(F)c3)NC(=O)Cn3nc(C(F)(F)F)c4c3C(F)(F)[C@@H]3C[C@H]43)c21` (stereo partly drawn) [Compound 50B, N-((1S)-1-(3-(4-chloro-1-methyl-3-(methylsulfonamido)-1H-indazol-7-yl)-6-(((3aS,6aR)-3-hydroxyhexahydrofuro[2,3-b]furan-3-yl)ethynyl)pyridin-2-yl)-2-(3,5-difluorophenyl)ethyl)-2-((3bS,4aR)-5,5-difluoro-3-(trifluoromethyl)-3b,4,4a,5-tetrahydro-1H-cyclopropa[3,4]cyclopenta[1,2-c]pyrazol-1-yl)acetamide]: 92% and 10 µM.
